Consider one molecule from publication PMC8958505, “Discovery of Potential Neuroprotective Agents against Paclitaxel-Induced Peripheral Neuropathy” (Journal of Medicinal Chemistry, 2022).

In data set [1] the target is Bradykinin B2 (Homo sapiens, UniProt P30411). The experiment in a line: LeadProfilingScreen: Bradykinin B2. The class given is binding.
Data set [2] relates to mice. Description: Hemodynamic monitoring (systolic pressure, heart rate) and body weight. Type of data set: in vivo, mouse. Here is the method:
The baseline of every neurological behavior test was measured in 6-week-old C57BL/6J female mice prior to treatment. […] Three behavioral tests were performed on the same groups of animals once per week and no more than two behavioral tests on the same day. The first behavioral experiment was performed on the next day after the last course of treatment. Mechanical hyperalgesia was evaluated by using von Frey filament (#2390, IITC Inc., USA), thermal sensitivity was determined by the tail immersion assay (water temperature: 48–49 °C), and motor coordination was assessed by rotarod (#7750, Ugo Basile Biological Research Apparatus, Italy). After the first drug implantation, the body weight was recorded every 6 days throughout the entire experiment.
Noninvasive automatized tail-cuff system (Visitech Systems, Apex, NC, USA) was used to measure the systolic pressure and the heart rate of conscious mice. All mice were placed in a constant temperature platform at least three times to adapt the system prior to hemodynamic measurement. The root of the tail was mounted on the occlusion and sensor cuff after the mouse was placed in a constant temperature platform. Each mouse was measured for at least 15 repetitions to obtain the mean of systolic pressure and heart rate. The hemodynamic change of each mouse was measured at five different time points.

Data set [3] concerns the target T1, CYP 2C9 (Homo sapiens, UniProt P11712).
T1 construct: host or cells: baculovirus-infected insect cells (supersomes)
The experiment in a line: Cytochrome P450 testing, CYP 2C9. Type of data set: in vitro ADME. The conditions noted are these: diclofenac 4-hydroxylation; read-out: Concentration of inhibition (IC50), CYP 2C9. The text has this: Cytochrome P450 testing of CN016
The effects of CN016 on the activity of six specific human liver cytochrome P450 isozymes (CYP 1A2, 2C9, 2C19, 2D6, 2E1, 3A4) expressed in baculovirus-infected insect cell supersomes were studied. The reactions used to measure the activity of these enzymes were phenacetin O-deethylation (1A2), diclofenac 4-hydroxylation (2C9), mephenytoin 4-hydroxylation (2C19), dextromethorphan O-demethylation (2D6), chlorzoxazone 6-hydroxylation (2E1) and testosterone 6-hydroxylation (3A4).
Furafylline, sulfaphenazole, tranylcypromine, quinidine, diethyldithiocarbamate and azamulin were used as reference inhibitors of these enzymes. Incubation mixtures containing no CN016 or reference inhibitors were used as controls. The tested result […]
Table S4. Result of Cytochrome P450 testing of CN016

Data set [4] relates to panel of selected 67 commercially available receptors and enzymes. Description: 67 off-target study (LeadProfilingScreen), whole panel. As to conditions: 10 μM. Type of data set: binding. The text has this:
LeadProfilingScreen (Total # of Assays: 67)
To evaluate, in LeadProfilingScreen, the activity of test compound CN168 (Panlabs # 1251879). […]
Summary of Significant Results
Biochemical assay results are presented as the percent inhibition of specific binding or activity throughout the report.
All other results are expressed in terms of that assay's quantitation method.
• For primary assays, only the lowest concentration with a significant response judged by the assays' criteria, is […]
• Where applicable, either the secondary assay results with the lowest dose/concentration meeting the significance […]
• Unless otherwise requested, primary screening in duplicate with quantitative data (e.g., IC50 ± SEM, Ki ± SEM and nH) are shown where applicable for individual requested assays. In screening packages, primary screening in duplicate with semi-quantitative data (e.g., estimated IC50, Ki and nH) are shown where applicable (concentration range of 4 log units); available secondary functional assays are carried out ([…]) and MEC or MIC determined only if active in primary assays >50% at 1 log unit below initial test concentration. […]

Data set [5] concerns the target Estrogen ERα (Homo sapiens, UniProt P03372). Description: LeadProfilingScreen: Estrogen ERα. Type of data set: binding.
The target of data set [6] is Transporter, Serotonin (5-Hydroxytryptamine) (SERT) (Homo sapiens, UniProt P31645). The experiment in a line: LeadProfilingScreen: Transporter, Serotonin (SERT). The class given is binding.
Sequence of Transporter, Serotonin (5-Hydroxytryptamine) (SERT) (P31645 whole entry): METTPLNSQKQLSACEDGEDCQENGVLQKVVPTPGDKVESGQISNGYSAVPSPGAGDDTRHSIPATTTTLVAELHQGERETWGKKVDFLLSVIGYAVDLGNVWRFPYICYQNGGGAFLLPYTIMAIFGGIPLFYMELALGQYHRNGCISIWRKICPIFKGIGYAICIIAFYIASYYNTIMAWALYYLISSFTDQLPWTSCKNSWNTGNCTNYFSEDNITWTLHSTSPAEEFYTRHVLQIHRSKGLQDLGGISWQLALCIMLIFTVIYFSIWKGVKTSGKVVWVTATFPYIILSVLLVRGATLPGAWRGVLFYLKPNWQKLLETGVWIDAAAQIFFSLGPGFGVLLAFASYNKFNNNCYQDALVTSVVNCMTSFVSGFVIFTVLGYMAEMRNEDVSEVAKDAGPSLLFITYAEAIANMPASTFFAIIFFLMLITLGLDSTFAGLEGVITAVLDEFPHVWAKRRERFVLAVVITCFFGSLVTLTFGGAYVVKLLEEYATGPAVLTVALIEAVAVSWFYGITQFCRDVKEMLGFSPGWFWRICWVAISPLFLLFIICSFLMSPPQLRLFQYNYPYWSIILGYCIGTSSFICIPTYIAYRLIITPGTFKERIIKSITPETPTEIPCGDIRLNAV
Data set [7] relates to Purinergic P2Y, Non-Selective. Description: LeadProfilingScreen: Purinergic P2Y, Non-Selective. The class given is binding, rat. The conditions noted are these: 10 μM.
In data set [8] the test system is Rolipram. Description: LeadProfilingScreen: Rolipram. The class given is binding, rat. The conditions noted are these: 10 μM.
Data set [9] addresses Transporter, Norepinephrine (NET) (Homo sapiens, UniProt P23975). The experiment in a line: LeadProfilingScreen: Transporter, Norepinephrine (NET). The class given is binding.
Data set [10] addresses Dopamine D3 (Homo sapiens, UniProt P35462). The experiment in a line: LeadProfilingScreen: Dopamine D3. The class given is binding.
The test system of data set [11] is Calcium Channel L-Type, Benzothiazepine. The experiment in a line: LeadProfilingScreen: Calcium Channel L-Type, Benzothiazepine. Type of data set: binding, rat. As to conditions: 10 μM.
Data set [12] concerns Glutamate, Kainate. The experiment in a line: LeadProfilingScreen: Glutamate, Kainate. Type of data set: binding, rat. The conditions noted are these: 10 μM.
In data set [13] the test system is GABAA, Muscimol, Central. The experiment in a line: LeadProfilingScreen: GABAA, Muscimol, Central. Type of data set: binding, rat. The conditions noted are these: 10 μM.
Data set [14] is described as follows: Pharmacokinetics after intraperitoneal administration. The class given is in vivo. The conditions noted are these: male, ICR, mouse, plasma, 5 mg/kg, 5 mg/kg IP, at one hour. Here is the method:
Male ICR mice weighed (29–33 g) were obtained from BioLASCO (Taiwan Co., Ltd., Ilan, Taiwan). The animal studies were performed according to NHRI institutional animal care and committee-approved procedures. Food and water were available ad libitum throughout the experiment. A single 5.0 mg/kg dose of CN016 was dissolved in normal saline and was separately administered to mice intravenously. The groups consisted of three mice for each time point. At times 0.03, 0.08, 0.25, 0.5, 1, 2, 4, 6, 8, 16, and 24 h after dosing, blood was collected from groups of three mice at each time point by cardiac puncture. Plasma was separated from blood and stored in a freezer (−80 °C) before LC/MS/MS analysis. In addition, pharmacokinetic analysis of CN016 following intraperitoneal administration (IP, 5 mg/kg) is provided in Figure S2 (Supporting Information).
Figure S2. Pharmacokinetic profiles of CN016 (5 mg/kg) after intraperitoneal administration. (A) Plasma concentration-time profiles of the CN016 after intraperitoneal injection of a 5 mg/kg dose. Red Circle: a drug concentration of 10 nM.
Blue Triangle: a drug concentration of 1000 nM. (B) Pharmacokinetic parameter of CN016 after intraperitoneal administration.
The pharmacokinetics of CN016 after IP administration (5 mg/kg) is illustrated in Figure S2. […]

Setting [15] is: CN016 (5, 10 or 20 mg/kg) and paclitaxel (4.5 mg/kg).

Molecules are shown by their SMILES. Values joined by “and” are separate entries in the source; they are usually repeats but may differ in a detail not shown here. Equal values may be shown once. Where a name gives a salt, the structure may show the parent alone.

T1 sequence (P11712 whole entry): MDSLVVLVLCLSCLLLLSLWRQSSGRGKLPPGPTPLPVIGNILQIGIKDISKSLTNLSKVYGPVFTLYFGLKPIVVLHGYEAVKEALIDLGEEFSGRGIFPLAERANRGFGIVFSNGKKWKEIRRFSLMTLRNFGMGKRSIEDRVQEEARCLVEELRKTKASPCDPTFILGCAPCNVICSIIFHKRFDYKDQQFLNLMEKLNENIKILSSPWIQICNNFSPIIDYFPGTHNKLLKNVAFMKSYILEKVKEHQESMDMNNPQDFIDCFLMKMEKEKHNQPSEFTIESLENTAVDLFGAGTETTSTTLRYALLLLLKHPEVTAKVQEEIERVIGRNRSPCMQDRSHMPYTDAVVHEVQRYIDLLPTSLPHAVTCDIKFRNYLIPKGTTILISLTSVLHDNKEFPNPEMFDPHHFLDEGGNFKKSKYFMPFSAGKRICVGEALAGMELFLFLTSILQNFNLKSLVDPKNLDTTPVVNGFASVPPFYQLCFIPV
Sequence of Transporter, Norepinephrine (NET) (P23975 whole entry): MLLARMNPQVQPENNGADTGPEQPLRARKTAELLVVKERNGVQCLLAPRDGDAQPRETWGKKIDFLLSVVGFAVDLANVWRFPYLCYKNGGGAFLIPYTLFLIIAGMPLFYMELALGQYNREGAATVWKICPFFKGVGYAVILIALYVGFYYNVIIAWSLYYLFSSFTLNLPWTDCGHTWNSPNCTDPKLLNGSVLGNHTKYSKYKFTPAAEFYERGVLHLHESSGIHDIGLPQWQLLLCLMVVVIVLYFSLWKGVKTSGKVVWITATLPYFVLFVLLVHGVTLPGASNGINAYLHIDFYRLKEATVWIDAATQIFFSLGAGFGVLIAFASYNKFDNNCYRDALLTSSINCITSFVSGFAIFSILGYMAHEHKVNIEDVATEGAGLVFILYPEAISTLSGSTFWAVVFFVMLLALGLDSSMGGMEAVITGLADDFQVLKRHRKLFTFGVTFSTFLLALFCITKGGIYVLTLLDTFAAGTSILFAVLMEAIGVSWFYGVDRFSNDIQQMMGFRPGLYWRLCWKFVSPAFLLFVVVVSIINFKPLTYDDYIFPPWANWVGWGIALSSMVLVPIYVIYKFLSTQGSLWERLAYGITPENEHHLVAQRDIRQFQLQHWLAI
Sequence of Estrogen ERα (P03372 whole entry): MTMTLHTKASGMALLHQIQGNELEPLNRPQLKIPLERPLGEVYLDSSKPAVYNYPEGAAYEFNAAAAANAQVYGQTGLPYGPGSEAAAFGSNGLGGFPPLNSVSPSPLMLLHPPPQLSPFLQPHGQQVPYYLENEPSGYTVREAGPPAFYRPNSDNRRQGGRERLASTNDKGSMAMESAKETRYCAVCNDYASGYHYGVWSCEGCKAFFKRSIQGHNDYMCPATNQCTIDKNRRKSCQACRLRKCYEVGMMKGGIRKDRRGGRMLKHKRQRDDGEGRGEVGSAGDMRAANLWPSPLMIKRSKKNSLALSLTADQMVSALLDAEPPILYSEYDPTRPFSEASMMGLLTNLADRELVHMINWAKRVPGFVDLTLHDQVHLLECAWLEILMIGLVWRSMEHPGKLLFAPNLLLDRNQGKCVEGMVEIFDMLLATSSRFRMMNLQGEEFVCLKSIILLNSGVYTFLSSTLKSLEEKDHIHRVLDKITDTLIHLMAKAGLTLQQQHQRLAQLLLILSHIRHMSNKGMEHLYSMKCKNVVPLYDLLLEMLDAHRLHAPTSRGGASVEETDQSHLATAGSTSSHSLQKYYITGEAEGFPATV
Sequence of Bradykinin B2 (P30411 whole entry): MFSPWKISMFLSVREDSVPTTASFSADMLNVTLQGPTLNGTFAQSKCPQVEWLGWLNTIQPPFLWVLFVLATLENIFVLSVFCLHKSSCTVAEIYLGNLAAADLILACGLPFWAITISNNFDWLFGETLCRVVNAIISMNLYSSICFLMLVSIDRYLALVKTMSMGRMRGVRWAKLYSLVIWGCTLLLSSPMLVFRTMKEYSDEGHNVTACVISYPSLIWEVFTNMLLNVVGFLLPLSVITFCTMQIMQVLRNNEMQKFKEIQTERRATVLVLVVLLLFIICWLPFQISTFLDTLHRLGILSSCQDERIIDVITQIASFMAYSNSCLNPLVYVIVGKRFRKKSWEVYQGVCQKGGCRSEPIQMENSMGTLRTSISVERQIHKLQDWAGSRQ
Sequence of Dopamine D3 (P35462 whole entry): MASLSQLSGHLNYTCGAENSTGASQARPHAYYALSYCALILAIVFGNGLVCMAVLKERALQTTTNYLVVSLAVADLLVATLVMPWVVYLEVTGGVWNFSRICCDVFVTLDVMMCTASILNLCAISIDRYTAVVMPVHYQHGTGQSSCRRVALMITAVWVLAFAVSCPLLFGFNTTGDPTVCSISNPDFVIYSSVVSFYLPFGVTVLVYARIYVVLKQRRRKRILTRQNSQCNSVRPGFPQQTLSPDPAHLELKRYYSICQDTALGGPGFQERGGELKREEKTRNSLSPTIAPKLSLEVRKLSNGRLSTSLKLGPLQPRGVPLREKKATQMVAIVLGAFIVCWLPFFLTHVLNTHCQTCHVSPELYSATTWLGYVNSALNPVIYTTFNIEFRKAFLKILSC

Turning to `O=P(O)(O)CCN1CCC(Nc2cc(N3CCOCC3)nc(NCc3cn(CCCO)nn3)n2)CC1` [CN016, {2-[4-(2-{[1-(3-Hydroxy-propyl)-1H-[1,2,3]triazol-4-ylmethyl]-amino}-6-morpholin-4-yl-pyrimidin-4-ylamino)-piperidin-1-yl]-ethyl}-phosphonic Acid Hydrobromide Salt], the inhibition at 10 µM in [1] was -4%; in data set [5] it was -17%; in data set [6], -4%; in data set [9], -1%; in [10] it was -3%. Further, in [2] (20 mg/kg), the “harmful effects, including heart rhythm, systolic blood pressure, and weight change” value is “no harmful effects”. The heart rhythm variability result in [2] (setting [15]) was “did not cause”. For the same molecule, in data set [2] (setting [15]), the “systolic blood pressure fluctuations” value is reported as “did not cause”. The weight change entry in data set [2] (setting [15]) was “did not cause”. Moreover, the IC50 in [3] is above 100 µM. For the same molecule, the “Significant responses (≥ 50% inhibition or stimulation) in the primary assays” value in data set [4] is given as “No significant results noted”. Also, in data set [4], the “inhibitory activity for each tested item of the 67 panel” value is on record as below 20%. Also, the “Inhibition (%), Purinergic P2Y” value in data set [7] was determined as 9%. Also, the “Inhibition (%), Rolipram” value in data set [8] came out at 6%. For the same molecule, the “Inhibition (%), Calcium Channel L-Type, Benzothiazepine” value in data set [11] is listed as -13%. In addition, in data set [12], the “Inhibition (%), Glutamate, Kainate” value turned out to be 0%. For the same molecule, the “Inhibition (%), GABAA, Muscimol, Central” value in data set [13] worked out at 5%. Also, the concentration at 1 h in [14] was 58 ng/mL and 84.4 nM.

One may read the inhibition as the drop in the measured response relative to a control, in per cent.
